# Assay results taken from patent US12007399B2, “Method of identifying and treating premature infants at risk for BPD” (Mallinckrodt Pharmaceuticals Ireland Limited, priority 2014, dated 2024).
# Columns and labels:
# [1] = system: mice with eNOS deficiency; conditions: inhaled; cited from earlier work
# [2] = LC/MS assay of total plasma nitrite and nitrate (NOx) in trial subjects; type: in vivo, human; conditions: per subject, nitric oxide treatment arm
# Protocol: Because of the challenge to measure free NO in systemic circulation, the PK assessment was done via plasma concentration data of NOx (nitrite and nitrate). In addition, methemoglobin (another metabolite of NO) was used as a secondary variable for PK evaluation. This evaluation was done to understand the relationship between pharmacokinetic behavior of iNO and clinical outcomes. The sampling protocol included pre-treatment time points (less than 2 hours before initiation of NO dosing), as well as a variety of time points during iNO therapy and after discontinuation of iNO therapy.
# A liquid chromatographic/mass […] (LC/MS) assay method was developed and qualified for measurement NOx in human plasma. The quantitation of NOx was performed using the ^15N-stable isotope labeled nitrate as an internal standard. Nitrate reductase and NADH was added to the samples for enzymatic reduction of nitrate to nitrite in plasma. Upon completion of the reduction reaction, acetone was added to precipitate plasma proteins. The alkylating reagent, pentafluorobenzyl bromide (PFBBr), was subsequently added to the samples to convert nitrite to a chemically stable pentafluorobenzyl derivative. After completion of derivatization, plasma supernatant was injected into the LC/MS for analysis. Plasma concentrations of total nitrite and nitrate were measured and reported as NOx using this assay method. […]
# [3] = in vivo; cited from earlier work
# [4] = system: premature infants between 7 and 21 days of age requiring ventilator support; conditions: decreasing concentrations from 20 ppm, minimum of 24 days; cited from earlier work
# [5] = system: preterm infants less than 30 weeks gestational age requiring mechanical ventilation or positive pressure support; assay: Multi-center, double blind, placebo-controlled randomized clinical trial of iNO for prevention of BPD; type: in vivo, human
# Text: It has been discovered that certain biomarkers present in premature infants are predictive of the risk of developing BPD and/or the likelihood of a therapeutic response to iNO to prevent BPD. As used herein, the term “therapeutic response to iNO” means that iNO administration increases the rate of survival without bronchopulmonary dysplasia (BPD) at 36 weeks of post menstrual age compared to the rate of survival […] at 36 weeks of post menstrual age in an untreated premature infant population. As used herein, the term “premature infant”, “preterm infant” and the like means infants born at less than 30 weeks gestational age. The biomarkers identified are of three types: a) the concentration of metabolites of NO, such as nitrite and nitrate, in blood or plasma, b) the concentration of NO in exhaled air, and c) the presence or absence of a mutation in the eNOS gene that decreases endogenous NO production, or any combination thereof.
# A multi-center, double blind, placebo-controlled randomized clinical trial was conducted to examine the efficacy of iNO in preterm infants less than 30 weeks gestational age and less than 1250 grams who required mechanical ventilation or positive pressure support on days 5 to 14 after birth. […]
structure (smiles),measurement,setting,value
"[N]=O [NITRIC OXIDE, nitric oxide]",Alveolar and vascular growth,[1],stimulated alveolar and vascular growth
same,"Lab Test Result (plasma NOx, total nitrite and nitrate)",[2],<LLOQ
same,Time before steady-state methemoglobin levels are attained,[3],≥ 8 h
same,Pulmonary outcome,[4],improves the pulmonary outcome
same,Short term adverse effects,[4],no apparent short term adverse effects
same,Efficacy of iNO treatment,[5]; subjects having an average NOx concentration of about 20 or less,therapeutically effective
same,Efficacy of iNO treatment,[5]; subjects with NOx levels from 62.3 uM to 184 uM,not effective
